# Experimental data from ChEMBL document CHEMBL4673280, “Discovery and SAR studies of 2-alkyl-3-phenyl-2,4,5,6,7,8-hexahydropyrazolo[3,4-d]azepines as 5-HT inhibitors leading to the identification of a clinical candidate” (Bioorg Med Chem Lett, 2021).
# Key:
# [1] = target: 5-hydroxytryptamine receptor 2B (Homo sapiens, UniProt P41595); experiment: Displacement of [3H]-ketanserin from human 5-HT2B receptor by competitive radioligand binding assay
# [2] = target: 5-hydroxytryptamine receptor 2A (Homo sapiens, UniProt P28223); experiment: Displacement of [3H]-ketanserin from human 5-HT2A receptor by competitive radioligand binding assay
# [3] = target: 5-hydroxytryptamine receptor 7 (Rattus norvegicus, UniProt P32305); experiment: Displacement of [3H]-CT from rat 5-HT7 receptor expressed in HEK293 cells by competitive radioligand binding assay; assay type: cell-based
# [4] = target: T1, 5-hydroxytryptamine receptor 2C (Homo sapiens, UniProt P28335); experiment: Displacement of [3H]-ketanserin from human 5-HT2C receptor by competitive radioligand binding assay
# T1 sequence (P28335 whole entry): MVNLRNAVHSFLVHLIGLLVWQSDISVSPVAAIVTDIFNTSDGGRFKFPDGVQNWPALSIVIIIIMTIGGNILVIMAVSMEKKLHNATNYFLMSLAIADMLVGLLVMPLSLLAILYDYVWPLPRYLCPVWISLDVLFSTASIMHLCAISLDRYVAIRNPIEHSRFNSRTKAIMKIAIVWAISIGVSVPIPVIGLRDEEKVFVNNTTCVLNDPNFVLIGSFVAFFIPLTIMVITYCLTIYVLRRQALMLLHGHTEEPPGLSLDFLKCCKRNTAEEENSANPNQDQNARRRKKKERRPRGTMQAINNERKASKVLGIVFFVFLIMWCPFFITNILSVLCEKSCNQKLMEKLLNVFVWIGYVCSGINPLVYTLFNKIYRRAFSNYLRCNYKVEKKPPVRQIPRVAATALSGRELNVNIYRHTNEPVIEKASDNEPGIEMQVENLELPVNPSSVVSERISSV
# [5] = target: T2, Adrenergic receptor alpha-1 (Rattus norvegicus, UniProt P15823+P23944+P43140); experiment: Displacement of […] from alpha1 adrenergic receptor in rat cortex membrane incubated for 60 mins by competitive radioligand binding assay; assay type: cell membranes
# T2 sequence (P15823 whole entry): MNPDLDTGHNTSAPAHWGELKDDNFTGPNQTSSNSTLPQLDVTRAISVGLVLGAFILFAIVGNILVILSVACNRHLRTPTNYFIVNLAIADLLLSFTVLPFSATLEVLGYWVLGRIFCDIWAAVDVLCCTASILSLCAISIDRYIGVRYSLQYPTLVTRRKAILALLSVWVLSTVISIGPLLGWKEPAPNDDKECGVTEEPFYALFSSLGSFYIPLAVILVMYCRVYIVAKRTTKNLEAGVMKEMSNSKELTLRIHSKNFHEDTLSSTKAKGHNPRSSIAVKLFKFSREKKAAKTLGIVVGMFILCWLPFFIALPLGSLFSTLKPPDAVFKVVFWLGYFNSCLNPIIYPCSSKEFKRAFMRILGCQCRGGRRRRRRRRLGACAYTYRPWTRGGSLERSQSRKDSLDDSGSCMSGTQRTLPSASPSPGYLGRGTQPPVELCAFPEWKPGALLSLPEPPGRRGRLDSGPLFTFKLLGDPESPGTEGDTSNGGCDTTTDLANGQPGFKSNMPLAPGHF
# T2 sequence (P23944 whole entry): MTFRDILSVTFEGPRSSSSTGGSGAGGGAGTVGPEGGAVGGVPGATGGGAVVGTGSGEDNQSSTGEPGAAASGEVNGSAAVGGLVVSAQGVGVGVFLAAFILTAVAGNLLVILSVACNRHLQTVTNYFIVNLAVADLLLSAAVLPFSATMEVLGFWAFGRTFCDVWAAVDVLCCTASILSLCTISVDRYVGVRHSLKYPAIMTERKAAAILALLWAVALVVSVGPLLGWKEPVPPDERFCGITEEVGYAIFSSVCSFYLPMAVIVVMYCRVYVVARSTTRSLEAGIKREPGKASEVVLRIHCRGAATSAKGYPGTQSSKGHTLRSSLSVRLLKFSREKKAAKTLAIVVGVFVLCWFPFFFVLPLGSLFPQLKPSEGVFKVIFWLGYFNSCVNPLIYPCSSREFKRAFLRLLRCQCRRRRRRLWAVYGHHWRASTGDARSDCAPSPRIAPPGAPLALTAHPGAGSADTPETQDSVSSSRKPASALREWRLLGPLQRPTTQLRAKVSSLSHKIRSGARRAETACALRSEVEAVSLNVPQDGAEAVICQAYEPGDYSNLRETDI
# T2 sequence (P43140 whole entry): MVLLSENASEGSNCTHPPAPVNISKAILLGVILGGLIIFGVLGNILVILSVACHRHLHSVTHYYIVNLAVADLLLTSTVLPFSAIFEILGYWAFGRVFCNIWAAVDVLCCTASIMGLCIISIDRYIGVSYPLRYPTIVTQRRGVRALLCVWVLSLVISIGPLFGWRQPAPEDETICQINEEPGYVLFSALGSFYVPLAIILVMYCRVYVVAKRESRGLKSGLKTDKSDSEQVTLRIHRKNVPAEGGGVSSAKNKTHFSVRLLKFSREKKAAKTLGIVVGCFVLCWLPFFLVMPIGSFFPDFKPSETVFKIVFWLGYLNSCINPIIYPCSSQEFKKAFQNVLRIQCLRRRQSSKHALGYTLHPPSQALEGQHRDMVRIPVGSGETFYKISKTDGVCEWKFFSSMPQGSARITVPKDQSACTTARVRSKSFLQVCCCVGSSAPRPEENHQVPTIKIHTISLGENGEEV
# Chain of 5-hydroxytryptamine receptor 2A (P28223 whole entry): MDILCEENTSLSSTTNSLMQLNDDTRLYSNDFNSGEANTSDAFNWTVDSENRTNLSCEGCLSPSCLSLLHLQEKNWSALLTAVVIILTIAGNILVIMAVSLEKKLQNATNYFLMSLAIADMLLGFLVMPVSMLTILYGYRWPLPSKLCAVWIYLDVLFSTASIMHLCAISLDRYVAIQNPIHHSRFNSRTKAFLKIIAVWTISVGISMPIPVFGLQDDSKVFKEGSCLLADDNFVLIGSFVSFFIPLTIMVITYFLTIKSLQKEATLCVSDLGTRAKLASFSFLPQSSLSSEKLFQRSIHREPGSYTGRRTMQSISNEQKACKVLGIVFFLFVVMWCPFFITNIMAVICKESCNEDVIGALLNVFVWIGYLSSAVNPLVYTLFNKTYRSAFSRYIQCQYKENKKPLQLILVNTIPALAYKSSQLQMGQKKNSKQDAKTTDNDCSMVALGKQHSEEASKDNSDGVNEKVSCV
# Chain of 5-hydroxytryptamine receptor 7 (P32305 whole entry): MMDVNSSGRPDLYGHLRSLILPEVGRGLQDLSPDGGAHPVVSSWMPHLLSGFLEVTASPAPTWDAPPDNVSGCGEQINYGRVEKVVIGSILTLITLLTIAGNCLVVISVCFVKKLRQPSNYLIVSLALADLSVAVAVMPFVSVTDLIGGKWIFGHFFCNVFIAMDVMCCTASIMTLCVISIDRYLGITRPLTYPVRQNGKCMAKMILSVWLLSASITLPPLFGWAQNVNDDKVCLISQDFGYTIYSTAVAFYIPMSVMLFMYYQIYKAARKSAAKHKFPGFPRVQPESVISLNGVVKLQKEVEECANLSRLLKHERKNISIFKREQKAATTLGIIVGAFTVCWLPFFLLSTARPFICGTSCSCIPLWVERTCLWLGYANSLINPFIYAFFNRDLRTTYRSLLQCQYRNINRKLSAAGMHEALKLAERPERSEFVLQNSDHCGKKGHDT
# Chain of 5-hydroxytryptamine receptor 2B (P41595 whole entry): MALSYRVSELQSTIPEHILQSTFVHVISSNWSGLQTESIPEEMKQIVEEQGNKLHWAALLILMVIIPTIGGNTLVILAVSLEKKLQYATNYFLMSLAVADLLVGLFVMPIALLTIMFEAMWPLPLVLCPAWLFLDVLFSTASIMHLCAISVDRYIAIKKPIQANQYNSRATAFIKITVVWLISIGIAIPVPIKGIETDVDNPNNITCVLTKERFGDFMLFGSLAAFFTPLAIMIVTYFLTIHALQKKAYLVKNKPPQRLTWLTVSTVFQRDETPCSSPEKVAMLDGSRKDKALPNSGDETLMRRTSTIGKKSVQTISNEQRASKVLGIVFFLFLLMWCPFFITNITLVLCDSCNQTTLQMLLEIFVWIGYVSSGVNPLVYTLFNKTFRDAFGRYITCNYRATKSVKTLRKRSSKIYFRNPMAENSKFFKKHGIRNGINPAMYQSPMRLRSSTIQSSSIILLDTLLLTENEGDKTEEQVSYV
Compound,Ki [1] [nM],Ki [2] [nM],Ki [3] [nM],Ki [4] [nM],Ki [5] [nM]
COc1ccc(-c2c3c(nn2C(C)C)CCNCC3)cc1,1,3,18,,
CC(C)n1nc2c(c1-c1ccc(Cl)c(Cl)c1)CCNCC2,31,39,4000,910,
CNc1ccc(-c2c3c(nn2C(C)C)CCNCC3)cc1,24,3,40,210,16
Clc1ccc(-c2nn(Cc3ccccc3)c3c2CCNCC3)cc1 [JNJ-18038683 FREE BASE],,100,,,
CC(C)n1nc2c(c1-c1ccc(Cl)cc1)CCNCC2,1,1,9,,20
